{
  "source": "patent US20180110824A1",
  "about": "“Macrocyclic Modulators of the Ghrelin Receptor” (Ocera Therapeutics, Inc., priority 2016, published 2018)",
  "system": "rat model of post-operative ileus (POI)",
  "experiment": "Gastric emptying and intestinal transit in rat model of postoperative ileus",
  "format": "in vivo",
  "description": "This clinically relevant model for POI is adapted from that of […].; Simmons, R. L.; Bauer, A. J. Surgical manipulation of the gut elicits an intestinal muscularis inflammatory response resulting in postsurgical ileus. Ann. Surg. 1998, 228, 652-663.) Other known models can also be used to study the effect of compounds of the invention. […] Rat, Sprague-Dawley, male, 300 g. • 2. Fasted O/N prior to study. • 1. Isofluorane anaesthesia under sterile conditions. • 2. Midline abdominal incision. • 3. Intestines and caecum were eviscerated and kept moist with saline. • 4. the intestines and caecum were manipulated along its entire length with moist cotton applicators analogous to the 'running of the bowel' in the clinical setting. This procedure was timed to last for 10 min. • 5. Intestines were gently replaced into the abdomen and the abdominal wound was stitched closed under sterile conditions. • 1. Rat was allowed to recover from isofluorane anaesthesia. • 2. Test compounds (or vehicle) were administered intravenously via previously implanted jugular catheter. • 3. Immediate intragastric gavage of methylcellulose (2%) labeled with radioactive ^99mTc, T=0. • 1. At t=15 min, animal was euthanized with CO2. • 2. Stomach and 10 cm sections along the small intestine were immediately ligated, cut and placed in tubes for measuring of ^99mTc in gamma counter. • 3. Stomach emptying and small intestinal transit were measured by calculation of the geometric mean. Geometric mean=Σ(% total radioactivity×number of segment)/100 • 1. Model adapted from Kälff et al. (1998), Ann Surg 228:652-63. • 2. Rats (male, Sprague-Dawley, 250-300 g) were implanted with jugular vein catheters to accommodate dosing of test articles. • 3. Rats were fasted O/N, anesthetized with isofluorane and subjected to abdominal surgery. • 4. Following an abdominal incision, the smalt intestine caecum and large intestine were eviscerated for a period of 15 min and kept moist with saline. • 5. […] Radioactivity (^99mTc) in each tissue isolate was measured as a means of measuring the transit of the meal.",
  "data": [
    {"smiles": "CC1C(=O)NC(Cc2ccc(F)cc2)C(=O)NCCCc2ccccc2O[C@H](C)CNC(C2CC2)C(=O)N1C", "note": "(stereo partly drawn) [compound 298]", "values": [
      {"measurement": "promotion of GI transit (geometric center of the meal) vs POI+vehicle", "setting": "100 μg/kg (i.v.)", "value": 2.7, "unit": "×"},
      {"measurement": "effect on postoperative ileus vs POI+vehicle treated rats", "setting": "100 μg/kg i.v., n=5, FIG. 8", "value": "significantly improves postoperative ileus"},
      {"measurement": "gastric emptying and intestinal transit in POI rats", "setting": "100 and 300 μg/kg (i.v.)", "value": "significantly increased gastric emptying and intestinal transit"}
    ]}
  ]
}
